Test results reported in US8067424B2, “Selective inhibitors for cyclin-dependent kinases” (Emory University, priority 2007, dated 2011).
Read-outs that look alike come from different tables or passages of the source.

What was measured:
Format in all cases: biochemical
CDK2-Cyclin A = CDK2-Cyclin A (Homo sapiens, UniProt P24941); experiment: Kinase screen: CDK2/cyclin A assay
Experimental: Generally, the same procedure was used for all assays.
(§1) The basic procedure was to add 0.5 microliters inhibitor/control in DMSO to plate. Fifteen microliters of enzyme/substrate/buffer mix were added and incubated for 5 min. Ten microliters MgATP at the relevant concentration were added and incubated for 30 min. The assay was stopped by adding 5 microliters of 3% orthophosphoric acid. The assay was transferred to a p81 filter plate and read in a scintillation counter of 30 sec/well. Note that this assay procedure was not followed for MKK1, which instead involved a two-step assay, and PKC alpha, which required the addition of lipid vesicles.
CDK2/cyclin A assay: CDK2/cyclin A (5-20 mU diluted in 50 mM Hepes pH 7.5, 1 mM DTT, 0.02% Brij35, 100 mM NaCl) was assayed against Histone H1 in a final volume of 25.5 μl containing 50 mM Hepes pH7.5, 1 mM DTT, 0.02% Brij35, 100 mM NaCl, Histone H1 (1 mg/ml), 10 mM magnesium acetate and 0.02 mM [33P-g-ATP] (500-1000 cpm/pmole) and incubated for 30 min at room temperature. Assays were stopped by addition of 5 μl of 0.5 M (3%) orthophosphoric acid and then harvested onto P81 Unifilter plates with a wash buffer of 50 mM orthophosphoric acid.

DYRK1A = DYRK1A (Homo sapiens, UniProt Q13627); experiment: Kinase screen: DYRK 1A assay
Experimental: (§2) Generally, the same procedure was used for all assays. Since the total assay volume was 25.5 microliters, 0.5 microliters of inhibitors at 51× assay concentration were added to the plates before any other addition.
as §1
(50-1000 cpm/pmole) and incubated for 30 min at room temperature. Assays were stopped by addition of 5 μl of 0.5 M (3%) orthophosphoric acid and then harvested onto P81 Unifilter plates with a wash buffer of 50 mM orthophosphoric acid.

MELK = MELK (Homo sapiens, UniProt Q14680); experiment: Kinase screen: MELK assay
MELK, sequence (Q14680 whole entry, species assumed): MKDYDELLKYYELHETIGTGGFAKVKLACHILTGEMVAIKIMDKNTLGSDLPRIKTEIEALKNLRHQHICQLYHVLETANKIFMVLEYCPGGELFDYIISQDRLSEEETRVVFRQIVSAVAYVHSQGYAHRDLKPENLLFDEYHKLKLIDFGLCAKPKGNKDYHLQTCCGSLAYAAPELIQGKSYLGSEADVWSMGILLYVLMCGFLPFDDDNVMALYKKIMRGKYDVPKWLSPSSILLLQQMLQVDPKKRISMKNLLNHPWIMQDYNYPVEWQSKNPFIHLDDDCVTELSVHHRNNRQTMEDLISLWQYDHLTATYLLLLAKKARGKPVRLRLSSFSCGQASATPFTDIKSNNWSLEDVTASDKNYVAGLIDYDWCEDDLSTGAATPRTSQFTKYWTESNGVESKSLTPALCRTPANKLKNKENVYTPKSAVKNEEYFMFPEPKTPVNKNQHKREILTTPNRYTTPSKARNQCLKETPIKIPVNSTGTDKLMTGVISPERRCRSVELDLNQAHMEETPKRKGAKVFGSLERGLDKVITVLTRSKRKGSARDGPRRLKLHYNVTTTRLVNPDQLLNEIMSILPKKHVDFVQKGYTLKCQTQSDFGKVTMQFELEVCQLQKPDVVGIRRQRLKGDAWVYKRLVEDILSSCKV
Experimental: as §2, §1
MELK assay: MELK (5-20 mU diluted in 50 mM Tris pH 7.5, 0.1 mM EGTA, 0.1% b-mercaptoethanol, 1 mg/ml BSA) was assayed against a substrate peptide ([…]) (SEQ ID NO: 33) in a final volume of 25.5 μl containing 50 mM Tris pH 7.5, 0.05% b-mercaptoethanol, 200 μM substrate peptide, 10 mM magnesium acetate and 0.05 mM [33P-g-ATP] (50-1000 cpm/pmole) and incubated for 30 min at room temperature. Assays were stopped by addition of 5 μl of 0.5 M (3%) orthophosphoric acid and then harvested onto P81 Unifilter plates with a wash buffer of 50 mM orthophosphoric acid.

CHK2 = CHK2 (Homo sapiens, UniProt O96017); experiment: Kinase screen: CHK2 assay
CHK2, sequence (O96017 whole entry, species assumed): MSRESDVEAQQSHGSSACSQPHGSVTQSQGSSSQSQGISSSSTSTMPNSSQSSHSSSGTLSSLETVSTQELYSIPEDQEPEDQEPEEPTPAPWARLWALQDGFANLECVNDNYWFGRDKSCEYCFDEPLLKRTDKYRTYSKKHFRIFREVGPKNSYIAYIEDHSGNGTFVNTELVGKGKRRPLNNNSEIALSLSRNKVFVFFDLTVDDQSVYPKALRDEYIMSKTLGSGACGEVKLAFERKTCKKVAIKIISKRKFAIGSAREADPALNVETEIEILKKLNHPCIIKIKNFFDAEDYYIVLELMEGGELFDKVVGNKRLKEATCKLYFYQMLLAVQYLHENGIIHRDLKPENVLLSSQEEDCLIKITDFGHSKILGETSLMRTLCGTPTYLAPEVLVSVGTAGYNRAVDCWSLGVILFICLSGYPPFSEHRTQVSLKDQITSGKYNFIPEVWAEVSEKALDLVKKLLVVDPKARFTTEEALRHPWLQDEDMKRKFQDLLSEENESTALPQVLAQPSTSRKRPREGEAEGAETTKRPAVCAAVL
Experimental: as §2, §1
CHK2 assay: CHK2 (5-20 mU diluted in 20 mM MOPS pH 7.5, 1 mM EDTA, 0.1% b-mercaptoethanol, 0.01% Brij-35, 5% glycerol, 1 mg/ml BSA) was assayed against CHKtide substrate peptide ([…]) (SEQ ID NO: 12) in a final volume of 25.5 μl containing 8 mM MOPS pH 7.0, 0.2 mM EDTA, 200 μM CHKtide, 10 mM magnesium acetate and 0.02 mM [33P-g-ATP] (50-1000 cpm/pmole) and incubated for 30 min at room temperature Assays were stopped by addition of 5 μl of 0.5 M (3%) orthophosphoric acid and then harvested onto P81 Unifilter plates with a wash buffer of 50 mM orthophosphoric acid.

MSK1 = MSK1 (Homo sapiens, UniProt O75582); experiment: Kinase screen: MSK1 assay
MSK1, sequence (O75582 whole entry, species assumed): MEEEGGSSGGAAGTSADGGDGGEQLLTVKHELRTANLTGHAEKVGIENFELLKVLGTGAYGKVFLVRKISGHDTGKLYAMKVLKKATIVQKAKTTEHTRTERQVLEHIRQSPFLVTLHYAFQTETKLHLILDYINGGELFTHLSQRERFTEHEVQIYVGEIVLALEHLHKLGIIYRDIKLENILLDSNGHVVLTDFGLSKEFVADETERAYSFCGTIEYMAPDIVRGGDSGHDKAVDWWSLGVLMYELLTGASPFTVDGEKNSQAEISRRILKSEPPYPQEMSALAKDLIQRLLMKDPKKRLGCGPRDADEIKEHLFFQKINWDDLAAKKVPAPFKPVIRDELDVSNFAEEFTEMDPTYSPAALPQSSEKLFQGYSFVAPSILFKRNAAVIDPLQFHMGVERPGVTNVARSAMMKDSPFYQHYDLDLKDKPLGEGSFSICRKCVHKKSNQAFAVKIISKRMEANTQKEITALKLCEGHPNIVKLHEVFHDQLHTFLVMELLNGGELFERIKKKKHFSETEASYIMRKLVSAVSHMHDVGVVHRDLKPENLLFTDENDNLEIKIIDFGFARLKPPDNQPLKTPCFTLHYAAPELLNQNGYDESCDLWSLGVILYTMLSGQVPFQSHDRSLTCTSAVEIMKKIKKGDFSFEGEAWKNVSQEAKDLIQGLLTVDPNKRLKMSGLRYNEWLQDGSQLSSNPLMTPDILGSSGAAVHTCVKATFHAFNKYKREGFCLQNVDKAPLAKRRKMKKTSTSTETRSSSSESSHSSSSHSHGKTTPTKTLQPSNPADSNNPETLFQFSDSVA
Experimental: as §2, §1
MSK1 assay: MSK1 (5-20 mU diluted in 20 mM MOPS pH 7.5, 1 mM EDTA, 0.01% Brij35, 0.1% b-mercaptoethanol, 1 mg/ml BSA) was assayed against a modified Crosstide peptide […] (SEQ ID NO: 4) in a final volume of 25.5 μl containing 8 mM MOPS pH7.0, 0.2 mM EDTA, 30 μM substrate peptide, 10 mM magnesium acetate and 0.02 mM [33P-g-ATP] (50-1000 cpm/pmole) and incubated for 30 min at room temperature Assays were stopped by addition of 5 μl of 0.5 M (3%) orthophosphoric acid and then harvested onto P81 Unifilter plates with a wash buffer of 50 mM orthophosphoric acid.

MST2 = target: T1, MST2 (Homo sapiens, UniProt Q13188); experiment: Kinase screen: MST2 assay
T1 sequence (Q13188 1-491): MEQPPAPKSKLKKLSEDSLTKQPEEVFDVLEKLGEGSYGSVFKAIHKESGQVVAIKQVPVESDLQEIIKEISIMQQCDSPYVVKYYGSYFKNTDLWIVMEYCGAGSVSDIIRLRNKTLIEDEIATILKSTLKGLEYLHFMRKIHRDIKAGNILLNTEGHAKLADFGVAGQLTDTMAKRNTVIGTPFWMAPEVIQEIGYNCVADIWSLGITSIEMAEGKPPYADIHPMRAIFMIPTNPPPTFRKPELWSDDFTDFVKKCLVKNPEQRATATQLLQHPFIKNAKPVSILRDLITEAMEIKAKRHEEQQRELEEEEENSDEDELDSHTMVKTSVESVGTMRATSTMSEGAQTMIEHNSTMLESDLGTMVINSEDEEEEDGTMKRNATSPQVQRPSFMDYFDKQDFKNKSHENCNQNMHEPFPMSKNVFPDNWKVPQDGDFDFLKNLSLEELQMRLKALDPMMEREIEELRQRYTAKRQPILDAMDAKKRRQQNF
Experimental: as §2, §1
MST2 assay: MST2 (5-20 mU diluted in 50 mM Tris pH 7.5, 0.1 mM EGTA, 0.1% b-mercaptoethanol, 100 μM Vanadate) was assayed against MBP in a final volume of 25.5 μl containing 50 mM Tris pH 7.5, 0.05% b-mercaptoethanol, 0.33 mg/ml MBP, 10 mM magnesium acetate and 0.02 mM [33P-g-ATP] (50-1000 cpm/pmole) and incubated for 30 min at room temperature. Assays were stopped by addition of 5 μl of 0.5 M (3%) orthophosphoric acid and then harvested onto P81 Unifilter plates with a wash buffer of 50 mM orthophosphoric acid.

[1] = 10 micromolar compound, read-out: mean activity remaining (as a percentage of the original activity), CDK 2 - Cyelin A
[2] = 10 micromolar compound, read-out: mean activity remaining (as a percentage of the original activity), DYRK 1A
[3] = 10 micromolar compound, read-out: mean activity remaining (as a percentage of the original activity), MELK
[4] = 10 micromolar compound, read-out: mean activity remaining (as a percentage of the original activity), CHK 2
[5] = 10 micromolar compound, read-out: mean activity remaining (as a percentage of the original activity), MSK1
[6] = 10 micromolar compound, read-out: mean activity remaining (as a percentage of the original activity), MST2

| Structure (SMILES) | remaining activity at 10 µM (CDK2-Cyclin A; [1]) [%] | remaining activity at 10 µM (DYRK1A; [2]) [%] | remaining activity at 10 µM (MELK; [3]) [%] | remaining activity at 10 µM (CHK2; [4]) [%] | remaining activity at 10 µM (MSK1; [5]) [%] | remaining activity at 10 µM (MST2; [6]) [%] | other results |
| --- | --- | --- | --- | --- | --- | --- | --- |
| CC[C@H](CO)Nc1cc(NCc2ccccc2)n2ncc(C(C)C)c2n1 [ICEC0067] | 5 | 27 | 75 | 70 | 86 | 89 | – |
| CC(C)c1cnn2c(NCc3ccccc3F)cc(NCCCCCN)nc12 [ICEC-0232] | – | – | – | – | – | – | mean activity remaining (as a percentage of the original activity), CDK 2 - Cyelin A (CDK2-Cyclin A; 10 micromolar compound): 9%; mean activity remaining (as a percentage of the original activity), DYRK 1A (DYRK1A; 10 micromolar compound): 11%; mean activity remaining (as a percentage of the original activity), MELK (MELK; 10 micromolar compound): 62%; mean activity remaining (as a percentage of the original activity), CHK 2 (CHK2; 10 micromolar compound): 15%; mean activity remaining (as a percentage of the original activity), MSK1 (MSK1; 10 micromolar compound): 42%; mean activity remaining (as a percentage of the original activity), MST2 (MST2; 10 micromolar compound): 82% |
| CC(C)c1cnn2c(NCc3ccccc3)cc(NCCCCCCCN)nc12 [BS-181] | – | – | – | – | – | – | remaining activity at 10 µM (CDK2-Cyclin A; CDK2-Cyclin A, 10 μM, read-out: Mean Remaining Enzyme Activity (%)): 9%; IC50 (CDK2-Cyclin A; kinase screen): 750 nM; remaining activity at 10 µM (DYRK1A; DYRK1A, 10 μM, read-out: Mean Remaining Enzyme Activity (%)): 17%; IC50 (DYRK1A; kinase screen): 2300 nM; remaining activity at 10 µM (MELK; MELK, 10 μM, read-out: Mean Remaining Enzyme Activity (%)): 63%; remaining activity at 10 µM (CHK2; CHK2, 10 μM, read-out: Mean Remaining Enzyme Activity (%)): 36%; remaining activity at 10 µM (MSK1; MSK1, 10 μM, read-out: Mean Remaining Enzyme Activity (%)): 65%; remaining activity at 10 µM (MST2; MST2, 10 μM, read-out: Mean Remaining Enzyme Activity (%)): 112% |
| CC(C)c1cnn2c(NCc3ccccc3)cc(N[C@@H](CO)[C@H](O)CO)nc12 [ICEC0318, (3S)-3-(7-(Benzylamino)-3-isopropylpyrazolo[1,5-a]pyrimidin-5-ylamino)butane-1,2,4-triol] | – | 15 | 88 | 61 | 96 | 86 | – |
| C=C[C@H](CO)Nc1cc(NCc2ccccc2)n2ncc(C(C)C)c2n1 [ICEC0065] | 3 | 30 | 90 | 81 | 88 | 87 | – |
